These results are taken from PubChem BioAssay (NCI).

The TGI is the concentration at which net growth stops. A low value points to greater sensitivity of the cells.

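In this assay, cells in 96-well plates receive the compound at five concentrations for 48 hours. Endpoints are linearly interpolated between the surrounding concentrations. TGI denotes the concentration required for complete inhibition of growth.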 Bounds are passed on as bounds.

Some test systems named below: U251 CNS; SK-MEL-5 melanoma; HCT-15 colon; OVCAR-4 ovarian; MDA-MB-231 breast; MALME-3M melanoma; ACHN renal; HCT-116 colon; CCRF-CEM leukemia; HT29 colon; MOLT-4 leukemia; KM12 colon; SN12C renal; HS 578T breast; MDA-N; SF-268 CNS; HCC-2998 colon; SK-OV-3 ovarian; DU-145 prostate.
Common to all, as to assay: DTP human tumour cell line panel, 48 h

As for `COc1ccc(C2=Nn3c(nc4sc(C)c(C)c4c3=O)SC2)cc1`, the TGI with U251 CNS, in the test with SK-MEL-5 melanoma, in the test with HCT-15 colon, with OVCAR-4 ovarian, in the test on MDA-MB-231 breast and in the test on MALME-3M melanoma was above 100 µM in each case. The TGI in the test with ACHN renal, with HCT-116 colon, with CCRF-CEM leukemia, in the test on HT29 colon, in the test on MOLT-4 leukemia and in the test with KM12 colon was above 100 µM each time. Also, the TGI in the test with SN12C renal, in the test on HS 578T breast, with MDA-N, with SF-268 CNS, with HCC-2998 colon and in the test with SK-OV-3 ovarian was above 100 µM each time. The compound further gave a TGI in the test with DU-145 prostate above 100 µM.

For `Cc1ccc(/C=N/Nc2nc3ccccc3s2)s1`, the TGI in the test on U251 CNS is above 100 µM; in the test with SK-MEL-5 melanoma it was above 100 µM; with HCT-15 colon, above 100 µM; with OVCAR-4 ovarian it was above 100 µM; in the test with MDA-MB-231 breast, 89.8 µM; with MALME-3M melanoma it was above 100 µM. Further, the TGI in the test on ACHN renal, in the test with HCT-116 colon, in the test on CCRF-CEM leukemia, with HT29 colon, with MOLT-4 leukemia and in the test on KM12 colon was above 100 µM in each case. The concentration for total growth inhibition (TGI) in the test with SN12C renal is 34.3 µM; in the test with HS 578T breast, above 100 µM; in the test with MDA-N, above 100 µM; in the test with SF-268 CNS it was above 100 µM; with HCC-2998 colon, above 100 µM; in the test with SK-OV-3 ovarian, above 100 µM. Further, the TGI in the test with DU-145 prostate was above 100 µM.

As for `CC(C)/C(Cl)=N/OC(=O)Nc1cccc(C(F)(F)F)c1`, the TGI in the test on U251 CNS is 31.3 µM; in the test with SK-MEL-5 melanoma, 21.3 µM; in the test on HCT-15 colon, 3.39 µM; with OVCAR-4 ovarian it was 16.6 µM; in the test on MDA-MB-231 breast, 17 µM; in the test on MALME-3M melanoma, 3.66 µM. Besides, the total growth inhibition concentration (TGI) with ACHN renal turned out to be 3.06 µM; with HCT-116 colon it was 24.7 µM; in the test with CCRF-CEM leukemia, 13.8 µM; in the test on HT29 colon, 10.6 µM; with MOLT-4 leukemia, 4.42 µM; in the test on KM12 colon, 29.8 µM. The concentration for total growth inhibition (TGI) is 20.1 µM with SN12C renal; above 69.4 µM in the test with HS 578T breast; 23.7 µM with MDA-N; above 64.9 µM in the test on SF-268 CNS; 30 µM in the test on HCC-2998 colon; 31.7 µM in the test on SK-OV-3 ovarian. This compound also came in with a TGI in the test on DU-145 prostate of 34.5 µM.

For the compound `C=CC(CBr)CCC(Br)C(C)(C)Br` (stereo not drawn), the TGI in the test with U251 CNS, in the test with SK-MEL-5 melanoma, in the test on HCT-15 colon, with OVCAR-4 ovarian, in the test on MDA-MB-231 breast and in the test with MALME-3M melanoma was above 10 µM each time. For the same compound, the TGI in the test with ACHN renal, in the test with HCT-116 colon, in the test on CCRF-CEM leukemia, in the test with HT29 colon, with MOLT-4 leukemia and in the test on KM12 colon was above 10 µM throughout. The TGI in the test with SN12C renal, in the test with HS 578T breast, with MDA-N, with SF-268 CNS, in the test on HCC-2998 colon and in the test with SK-OV-3 ovarian was above 10 µM each time. In the test on DU-145 prostate, the TGI is above 10 µM.

Regarding `C/C(=C/c1ccccc1)CN(C(=O)/C=C\Sc1ccccc1)C(C)(C)C`, the TGI in the test with U251 CNS, with SK-MEL-5 melanoma, with HCT-15 colon, in the test with OVCAR-4 ovarian, in the test with MDA-MB-231 breast and in the test on MALME-3M melanoma was above 100 µM each time. In addition, the TGI with ACHN renal, with HCT-116 colon, in the test on CCRF-CEM leukemia, in the test on HT29 colon, with MOLT-4 leukemia and with KM12 colon was above 100 µM throughout. In addition, the TGI in the test on SN12C renal was above 100 µM; with HS 578T breast, above 47.8 µM; with MDA-N, above 100 µM; in the test on SF-268 CNS, above 38.1 µM; in the test with HCC-2998 colon it was above 100 µM; with SK-OV-3 ovarian, above 100 µM. In addition, the TGI with DU-145 prostate was above 100 µM.

Turning to `CCCc1cc(=O)oc2c(C=O)c(O)cc(O)c12`, the concentration for total growth inhibition (TGI) was 55.7 µM in the test with U251 CNS; 37.8 µM with SK-MEL-5 melanoma; 73.4 µM with HCT-15 colon; 73.5 µM with OVCAR-4 ovarian; 58.2 µM with MDA-MB-231 breast; 42.1 µM in the test on MALME-3M melanoma. For the same compound, the TGI in the test on ACHN renal was found to be 86.7 µM; with HCT-116 colon it was 47.2 µM; in the test on CCRF-CEM leukemia, 51.4 µM; with HT29 colon, 64.5 µM; in the test with MOLT-4 leukemia, 56.5 µM; in the test with KM12 colon, 61.2 µM. Also, the TGI was found to be 78.9 µM in the test on SN12C renal; 61.2 µM with HS 578T breast; 75.6 µM in the test on MDA-N; 76.5 µM in the test on SF-268 CNS; 33.6 µM in the test on HCC-2998 colon; 86.9 µM with SK-OV-3 ovarian. Besides, the TGI in the test with DU-145 prostate came to 82.2 µM.

For the compound `CC1=C(C)CC(C#N)(C#N)C(C#N)(C#N)C1`, the TGI in the test with U251 CNS, in the test on SK-MEL-5 melanoma, in the test on HCT-15 colon, with OVCAR-4 ovarian, in the test with MDA-MB-231 breast and with MALME-3M melanoma was above 10 µM throughout. Moreover, the TGI is above 10 µM in the test on ACHN renal; above 7.32 µM in the test on HCT-116 colon; above 10 µM with CCRF-CEM leukemia; above 10 µM in the test with HT29 colon; above 6.09 µM in the test on MOLT-4 leukemia; above 10 µM in the test on KM12 colon. Moreover, the TGI with SN12C renal was above 10 µM; in the test with HS 578T breast, above 10 µM; with MDA-N it was above 7.22 µM; in the test on SF-268 CNS, above 10 µM; in the test with HCC-2998 colon it was above 10 µM; with SK-OV-3 ovarian it was above 10 µM. The same compound came in with a TGI in the test on DU-145 prostate above 10 µM.
